Experimental findings from patent US7777041B2, “2-acylamino-4-phenylthiazole derivatives, preparation thereof and therapeutic application thereof” (sanofi-aventis, priority 2003, dated 2010) are described below.

Like-named read-outs stand apart in the source and are kept apart here.

One data set has as its system HIV-1 Bal virus. Nature of the data set: Inhibitory activity on PBMCs infected with HIV-1 Bal virus (reverse transcriptase content in supernatant). It counts as cell-based. To be noted: 5 days exposure, read-out: IC50 of inhibition of HIV-1 Bal replication in PBMCs. The method, then: The inhibitory activity of the compounds according to the invention on PBMCs (peripheral blood mononuclear cells) infected with the HIV-1 Bal virus was also measured, according to a technique adapted from that described by V. Dolle et al., J. Med. Chem., 2000, 43, 3949, 3962. According to this technique, the PMBCs are infected with HIV-1 Bal and the test compounds are then added to the culture medium for 5 days. At the end of this exposure, the content of reverse transcriptase, which is correlated with the level of viral replication in the cells, is measured in the supernatant.
Under these conditions, AZT, a reference molecule which inhibits viral replication, has an IC50 value of less than 0.1 μM.

In another data set the target is T1, human CCR2b receptor (Homo sapiens, UniProt P41597).
T1 sequence (P41597 1-360 isoform P41597-2): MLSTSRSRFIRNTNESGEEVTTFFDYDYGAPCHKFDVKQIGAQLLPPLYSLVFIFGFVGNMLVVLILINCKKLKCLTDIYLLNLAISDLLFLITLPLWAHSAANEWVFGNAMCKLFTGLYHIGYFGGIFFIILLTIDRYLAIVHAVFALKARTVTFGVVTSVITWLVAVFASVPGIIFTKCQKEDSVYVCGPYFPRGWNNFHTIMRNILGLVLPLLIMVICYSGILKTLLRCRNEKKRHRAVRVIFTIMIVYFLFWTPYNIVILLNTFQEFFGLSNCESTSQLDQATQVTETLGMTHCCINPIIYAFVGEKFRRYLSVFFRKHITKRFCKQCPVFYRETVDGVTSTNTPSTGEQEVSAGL
Nature of the data set: Inhibitory activity on cells expressing the human CCR2b receptor. It counts as cell-based. The method, then: The inhibitory activity of the compounds according to the invention on cells expressing the human CCR2b receptor was measured.

Another data set relates to human THP-1 monocytes. Put plainly: Inhibition of chemotaxis on human THP-1 monocytes (adapted from Albini et al.). It counts as cell-based. The following applies: hMCP-1. The method, then:
The inhibition of chemotaxis was also measured on human THP-1 monocytes (sold by DSMZ-Germany) using a technique adapted from that described by A. Albini et al., Cancer Res., 1987, 47, 3239-3245. Under these conditions, hMCP-1 has an IC50 value of 6 nM.
The inhibition of chemotaxis by the compounds according to the invention is a sign of their antagonist activity on the chemokine receptors and in particular CCR2b.

The mark [1] stands for this setting: read-out: IC50 of inhibitory activity on cells expressing the human CCR2b receptor.

In the case of `CCCCc1ccc(OC)c(-c2csc(NC(=O)c3ccc(C(=O)N4CCC(NC5CCOCC5)CC4)cc3)n2)c1.Cl.Cl` [68], the melting point (as a rule, the temperature of the solid-liquid transition) was in the range of 181 to 189 °C. On to `Cc1cn([C@H]2C[C@H](N=[N+]=[N-])[C@@H](CO)O2)c(=O)[nH]c1=O` [AZT], for which the IC50 in the data set with HIV-1 Bal virus was under 100 nM.

With `CCOc1ccc(OCC)c(-c2csc(NC(=O)c3ccc(OCCN(CC)CC)cc3)n2)c1` [compound 12], the IC50 at human CCR2b receptor (setting [1]) was determined as 81 nM.

The compound `CCCCc1ccc(OC)c(-c2csc(NC(=O)c3ccc(CCCNC4CCOCC4)cc3)n2)c1` [compound 182, N-[4-(5-Butyl-2-methoxyphenyl)-1,3-thiazol-2-yl]-4-[3-(tetrahydro-2H-pyran-4-ylamino)propyl]benzamide] returned a melting point of 150 °C. Consider `CCCc1ccc(OC)c(-c2csc(NC(=O)c3ccc(C(=O)N4CCC(N5CC[C@@H](N(C)C)C5)CC4)cc3)n2)c1` [compound 203], for which, on human CCR2b receptor (setting [1]), the IC50 came to 93 nM.

Consider `CCOc1ccc(C2CCCCC2)cc1-c1csc(NC(=O)c2ccc(C(=O)N3CCC(=O)CC3)cc2)n1` [compound 244], for which the melting point stood at 236 °C. For the same compound, the IC50 at human CCR2b receptor (setting [1]) is 88 nM. For “hMCP-1: "hMCP-1 (human monocyte chemotactic protein), which belongs to the group of CC chemokines and whose actions are mediated by the CCR2b receptor"”, the IC50 with human CCR2b receptor (natural agonist, read-out: concentration of natural agonist hMCP-1 that inhibits 50% (IC50) of the activity of the CCR2b receptor) was 0.57 nM; with human THP-1 monocytes it was 6 nM.
